{"source": "paper PMC8568970", "about": "(Nature Communications, 2021)", "key": {"GHSR [1]": {"system": "GHSR", "conditions": "cited from earlier work", "excerpt": "It mainly signals through the growth hormone secretagogue receptor (GHSR, or ghrelin receptor), a class A G protein-coupled receptor (GPCR). […] The GHSR and Gi signaling ..."}, "GHSR mutant R102A": {"system": "GHSR mutant R102A", "test": "Calcium mobilization assay, R102A", "assay_type": "cell-based, human", "conditions": "Fig. 2f", "method": "Ghrelin residues are labeled in orange. […] GHSR bound to ibutamoren is colored green. Ibutamoren is shown as yellow sticks. e Ibutamoren binding pocket. f Dose-dependent action of ibutamoren on wtGHSR and mutants. In c and f, agonist-induced GHSR signaling was measured by Ca^2+ mobilization assay. Each data point represents mean ± S.D. from three independent assays. Polar interactions are shown as dashed lines in (a, b, and e).\nCalcium mobilization assay to measure GHSR signaling was carried out in HEK-293T cells cultured in DMEM supplemented with 10% (vol/vol) FBS (Fisher Scientific). The cDNAs encoding human GHSR was cloned into the pcDNA3.1(+) vector (Invitrogen) with a FLAG peptide fused to the N terminus. […] The surface expression of wtGHSR and various mutants in HEK-293T cells was determined and confirmed using FACS with a fluorescent FLAG M1 antibody (homemade).\nTo measure the agonist-induced calcium release, 50 μL dye loading buffer made of Hank’s Balanced Salt Solution (HBSS) with 5 μM Fluo-4 (Sigma), 0.2% pluronicacid, and 1% FBS was added to the GHSR-expressing cells and incubated for 1 h at 37 °C. […] Fluo-4 fluorescence intensity (excitation 480 nm, emission 520 nm) was measured as an indicator of calcium release in a multimode reader (Spark 20 M, TECAN). […] The data were analyzed in GraphPad Prism 8 using the one site dose-response stimulation method. […]"}, "GHSR mutants [2]": {"system": "GHSR mutants", "test": "Calcium mobilization assay, GHSR mutants (results in words)", "assay_type": "cell-based, human", "method": "Calcium mobilization assay to measure GHSR signaling was carried out in HEK-293T cells cultured in DMEM supplemented with 10% (vol/vol) FBS (Fisher Scientific). The cDNAs encoding human GHSR was cloned into the pcDNA3.1(+) vector (Invitrogen) with a FLAG peptide fused to the N terminus. Mutant variants were then generated by site-directed mutagenesis and all mutants were fully sequenced. Various GHSR constructs were transfected to HEK-293T cells using FuGENE Transfection Reagent (Promega). The surface expression of wtGHSR and various mutants in HEK-293T cells was determined and confirmed using FACS with a fluorescent FLAG M1 antibody (homemade).\nTo measure the agonist-induced calcium release, 50 μL dye loading buffer made of Hank’s Balanced Salt Solution (HBSS) with 5 μM Fluo-4 (Sigma), 0.2% pluronicacid, and 1% FBS was added to the GHSR-expressing cells and incubated for 1 h at 37 °C. Cells were then washed twice with HBSS buffer and left at room temperature in 50 μL HBBS. Fluo-4 fluorescence intensity (excitation 480 nm, emission 520 nm) was measured as an indicator of calcium release in a multimode reader (Spark 20 M, TECAN). […] The data were analyzed in GraphPad Prism 8 using the one site dose-response stimulation method. Results were presented as mean ± S.D. from three independent experiments."}, "GHSR [3]": {"system": "GHSR", "conditions": "signaling through GHSR, under nutritional or physiological challenges; cited from earlier work", "excerpt": "It mainly signals through the growth hormone secretagogue receptor (GHSR, or ghrelin receptor), a class A G protein-coupled receptor (GPCR). […] In addition, GHSR plays critical role in the mod ..."}, "[4]": {"system": "GHSR and Gi signaling pathway", "conditions": "cited from earlier work", "excerpt": "The GHSR and Gi signaling ..."}, "wild type GHSR [5]": {"system": "wild type GHSR", "test": "HTRF competition between dy647-JMV2959 and ghrelin in lipid discs", "assay_type": "binding, human", "excerpt": "(§1) Human GHSR was expressed in E. coli inclusion bodies, folded in amphipol A8-35, and then inserted into lipid nanodiscs formed with MSP1E3D1 and POPC:POPG (3:2 molar ratio) containing or not 10% cholesterol, as described in Damian et al.[54]. After insertion into nanodiscs, active receptor fractions were purified using affinity chromatography with the biotinylated version of the JMV2959 antagonist immobilized on a streptavidin column. GHSR containing disks were separated from aggregates and possible trace amounts of the ligand through a size-exclusion chromatography step on a Superdex 200 increase 10/300 GL column (GE Healthcare) using a 25 mM Na-HEPES, 150 mM NaCl, 0.5 mM EDTA, pH 7.5 buffer as the eluent. GTP turnover was assessed as described previously. All experiments were carried out at 15 °C. The receptor was first incubated with the isolated G protein and, when applicable, the ligand (10 µM) for 30 min in a 25 mM HEPES, 100 mM NaCl, 5 mM MgCl2, pH 7.5 buffer. GTP turnover was then started by adding GTP (5 µM) and GDP (10 µM), and the amount of remaining GTP was assessed after 10 min incubation at 15 °C using the GTPase-Glo assay (Promega). The signal was normalized in each case to that in the absence of receptor (100%).\n(§2) Competition ligand-binding assays were performed using the HTRF signal between GHSR labeled with Lumi-4 Tb and the JMV2959 antagonist labeled with dy647. Increasing concentrations in the competing compound were added to a receptor: antagonist mixture (100 nM concentration range). In all cases, the ligand: receptor mixtures were incubated for 30 min at 15 °C and the HTRF signal recorded using a Cary Eclipse spectrofluorimeter (Varian) with an excitation wavelength set at 337 nm and an emission wavelength at 665 and 620 nm. All binding data were analyzed using Prism 8.0.\nSupplementary Figure 2. Potential cholesterol binding sites and effects of cholesterol in GHSR signaling. (a) Cryo-EM density maps of two cholesterol molecules modeled in the structure of ghrelin-GHSR-Gi.GHSR is colored in slate. Cholesterol molecules are shown as grey sticks. […]"}, "GHSR mutants [6]": {"system": "GHSR mutants", "test": "HTRF-monitored binding of labeled ghrelin, GHSR mutants (results in words)", "design": "species or system human", "conditions": "Supplementary Fig. 3b", "method": "as §2\nGHSR mutants. (a) Surface expression levels of GHSR mutants tested in Figure 2. For each GHSR mutant, the expression level was determined by measuring the fluorescence intensity of transfected HEK-293 cells stained with a fluorescent anti-FLAG antibody that could bind to the N-terminal FLAG peptide of each GHSR construct. BG means background, representing results from non-transfected HEK-293 cells. Each column represents results shown as mean ± s.d. from 3 wells of cells transiently transfected with each GHSR mutant. (b) HTRF-monitored binding of […]\nPOPC:POPG lipid discs. The binding data are presented as variations in the HTRF ratio as a […]\nEach data point represents mean ± SD of three […]\nibutamoren (yellow). The receptors are colored in slate and green, respectively. ECL2 and ECL3 show notable conformational differences. […]"}, "GHSR mutants [7]": {"system": "GHSR mutants", "conditions": "cited from earlier work"}, "wild type GHSR [8]": {"system": "wild type GHSR", "test": "GTP turnover assay for Gi catalyzed by GHSR in nanodiscs", "assay_type": "biochemical, human", "excerpt": "as §1\nSupplementary Figure 2. Potential cholesterol binding sites and effects of cholesterol in GHSR signaling. (a) Cryo-EM density maps of two cholesterol molecules modeled in the structure of ghrelin-GHSR-Gi.GHSR is colored in slate. Cholesterol molecules are shown as grey sticks. (b) GTP turnover for Gi catalyzed by wild type GHSR in nanodiscs containing 10% […]\nnormalized to that obtained for the G protein in the absence of receptor (Gi panels), and data is mean ± SD of five experiments. Statistical values were obtained by means of two-sided […]\nloaded receptor, respectively). […]\nthe absence or presence of 10% cholesterol (molar ratio) into the lipid discs. Each data point represents mean ± SD of three experiments.\n(1 picture or pasted object on this page, not shown here)"}, "[9]": {"conditions": "reconstituted lipid nanodiscs, 10% cholesterol"}}, "note": "“Also recorded” adds a separate entry of the source. Ends that are not written are not given here. * marks the point of attachment. Octanoyl = CCCCCCCC(=O)*", "data": [{"molecule": "Liver expressed antimicrobial peptide 2 (LEAP2): Liver expressed antimicrobial peptide 2, GHSR inverse agonist or antagonist (MTPFWRGVSLRPIGASCRDDSECITRLCRKRRCSLSVAQE; UniProt Q969E1 38-77, looked up)", "values": [{"measurement": "pharmacological character at GHSR", "setting": "GHSR [1]", "value": "GHSR inverse agonist or antagonist"}]}, {"molecule": "CC(C)(N)C(=O)N[C@H](COCc1ccccc1)C(=O)N1CCC2(CC1)CN(S(C)(=O)=O)c1ccccc12", "note": "[ibutamoren]", "values": [{"measurement": "action of ibutamoren, effect of mutation of R102", "setting": "GHSR mutant R102A", "value": "compromised action of ibutamoren"}]}, {"molecule": "Cc1cc(-c2ccc3c(c2)CC[C@H]3N2CC3(CCN(C(=O)Cc4cn5cc(C)sc5n4)CC3)C2)ncn1", "note": "[PF-5190457]", "values": [{"measurement": "pharmacological character at GHSR", "setting": "GHSR [1]", "value": "GHSR inverse agonist"}]}, {"molecule": "ghrelin: 28-amino acid orexigenic peptide hormone; octanoylation at position-3 serine; endogenous GHSR agonist (Tocris) (GSS(Octanoyl)FLSPEHQRVQQRKESKKPPAKLQPR; UniProt Q9UBU3 24-51, looked up)", "values": [{"measurement": "EC50 of ghrelin in inducing GHSR signaling, effect of the four TM7 proline mutations", "setting": "GHSR mutants [2]; I297P, A298P, Q299P, I300P vs wtGHSR, 3 independent assays", "value": "didn't significantly affect the EC50s of ghrelin"}, {"measurement": "agonistic action of ghrelin, effect of proline mutations at the extracellular end of TM7", "setting": "GHSR mutants [2]; individual residues E297 to I300 to proline, Supplementary Fig. 4b", "value": "didn't significantly affect the agonistic action of ghrelin; also recorded: not critical for the agonistic action of ghrelin"}, {"measurement": "GHSR signaling induced by ghrelin, effect of mutations of hydrophobic residues in cavity II", "setting": "GHSR mutants [2]; mutations to larger or polar residues, Fig. 2c", "value": "compromised GHSR signaling induced by ghrelin"}, {"measurement": "growth hormone secretion and food intake", "setting": "GHSR [3]", "value": "stimulates growth hormone secretion and food intake"}, {"measurement": "glucose-induced insulin release", "setting": "[4]", "value": "attenuated glucose-induced insulin release"}, {"measurement": "decrease of Kd value for ghrelin in the presence of cholesterol", "setting": "wild type GHSR [5]; 10% cholesterol vs none, lipid discs", "value": "about 2 fold"}, {"measurement": "ghrelin binding, effect of salt bridge mutations", "setting": "GHSR mutants [6]; E124 and R283 to alanine or glutamine", "value": "could almost abolish ghrelin binding"}, {"measurement": "affinity of GHSR for ghrelin, effect of alanine mutations", "setting": "GHSR mutants [6]; individual mutations I178, L181, F286 to alanine", "value": "decreased affinity of GHSR for ghrelin"}, {"measurement": "potency of ghrelin in activating GHSR, effect of mutations F279, F312, W276", "setting": "GHSR mutants [7]; individual mutations in the aromatic cluster", "value": "significantly lowered the potency of ghrelin"}, {"measurement": "potency of ghrelin, effect of mutations E124, R283, Q120", "setting": "GHSR mutants [7]; individual mutations to non-polar residues", "value": "decreased potency of ghrelin"}]}, {"molecule": "CC(C)CCC[C@@H](C)[C@H]1CC[C@H]2[C@@H]3CC=C4C[C@@H](O)CC[C@]4(C)[C@H]3CC[C@]12C", "note": "[cholesterol]", "values": [{"measurement": "effect of cholesterol on affinity of GHSR for ghrelin", "setting": "wild type GHSR [5]; 10% cholesterol, lipid discs (peer review file)", "value": "slightly increase the affinity of GHSR for ghrelin"}, {"measurement": "effect of cholesterol on binding of ghrelin to GHSR", "setting": "wild type GHSR [5]; [9]", "value": "positively regulate the binding of ghrelin to GHSR"}, {"measurement": "effect of cholesterol on GHSR-induced Gi activation", "setting": "wild type GHSR [8]; 10% cholesterol (molar ratio), with and without 10 µM ghrelin, five experiments", "value": "subtle but significant positive effects"}, {"measurement": "effect of cholesterol on basal activity (GTP turnover)", "setting": "wild type GHSR [8]; no ligand, lower amplitude than in the presence of ghrelin", "value": "statistically significant effect"}, {"measurement": "effect of cholesterol on activity of GHSR", "setting": "wild type GHSR [8]; [9]", "value": "positively regulate"}]}]}
